Laboratory results published in PubChem BioAssay AID248 (DTP/NCI, 2004).
“And” between values parts separate entries of the source, which are not always exact repeats. Equal entries are not always repeated. Inconclusive results and toxic doses are left out. Cut-off read from the data, not from the text of the source: active = T/C of 150% or more; inactive = T/C below 125%.

Tested on: L1210 leukemia ip in BDF1 mice, survival T/C
Assay: NCI In Vivo Anticancer Drug Screen. Data for tumor model L1210 Leukemia (intraperitoneal) in B6D2F1 (BDF1) mice
Details: endpoint: mean survival time, higher = longer survival
Outline: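 Antitumor effect is assessed in tumor-bearing animals. Survival in the compound arm is compared with a vehicle-dosed control arm and expressed as their quotient.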

[1] = dose: 100.0 mg/kg/injection, schedule: Q01DX001 (ip), vehicle: saline
[2] = dose: 100.0 mg/kg/injection, schedule: Q04DX002 (ip), vehicle: Klucel (hydroxypropylcellulose) (HPC)
[3] = dose: 100.0 mg/kg/injection, schedule: Q04DX003 (ip), vehicle: saline
[4] = dose: 200.0 mg/kg/injection, schedule: Q01DX001 (ip), vehicle: saline
[5] = dose: 200.0 mg/kg/injection, schedule: Q04DX002 (ip), vehicle: Klucel (hydroxypropylcellulose) (HPC)
[6] = dose: 200.0 mg/kg/injection, schedule: Q04DX003 (ip), vehicle: saline
[7] = dose: 400.0 mg/kg/injection, schedule: Q01DX001 (ip), vehicle: saline
[8] = dose: 400.0 mg/kg/injection, schedule: Q04DX002 (ip), vehicle: Klucel (hydroxypropylcellulose) (HPC)
[9] = dose: 400.0 mg/kg/injection, schedule: Q04DX003 (ip), vehicle: saline
[10] = dose: 100.0 mg/kg/injection, schedule: Q04DX003 (ip), vehicle: Klucel (hydroxypropylcellulose) (HPC)
[11] = dose: 200.0 mg/kg/injection, schedule: Q04DX003 (ip), vehicle: Klucel (hydroxypropylcellulose) (HPC)
[12] = dose: 400.0 mg/kg/injection, schedule: Q04DX003 (ip), vehicle: Klucel (hydroxypropylcellulose) (HPC)
[13] = dose: 100.0 mg/kg/injection, schedule: Q04DX003 (ip), vehicle: saline with Tween-80
[14] = dose: 200.0 mg/kg/injection, schedule: Q04DX003 (ip), vehicle: saline with Tween-80
[15] = dose: 75.0 mg/kg/injection, schedule: Q04DX003 (ip), vehicle: Klucel (hydroxypropylcellulose) (HPC)
[16] = dose: 150.0 mg/kg/injection, schedule: Q04DX003 (ip), vehicle: Klucel (hydroxypropylcellulose) (HPC)
[17] = dose: 300.0 mg/kg/injection, schedule: Q04DX003 (ip), vehicle: Klucel (hydroxypropylcellulose) (HPC)
[18] = dose: 50.0 mg/kg/injection, schedule: Q01DX009 (ip), vehicle: Klucel (hydroxypropylcellulose) (HPC)
[19] = dose: 100.0 mg/kg/injection, schedule: Q01DX009 (ip), vehicle: Klucel (hydroxypropylcellulose) (HPC)
[20] = dose: 400.0 mg/kg/injection, schedule: Q01DX009 (ip), vehicle: Klucel (hydroxypropylcellulose) (HPC)
[21] = dose: 50.0 mg/kg/injection, schedule: Q01DX009 (ip), vehicle: saline with Tween-80
[22] = dose: 100.0 mg/kg/injection, schedule: Q01DX009 (ip), vehicle: saline with Tween-80
[23] = dose: 200.0 mg/kg/injection, schedule: Q01DX009 (ip), vehicle: Klucel (hydroxypropylcellulose) (HPC)

Measured: T/C

CCOC(=O)Cn1c(C)cnc1C
inactive: [1] 112 % of control | dose: 100.0 mg/kg/injection, schedule: Q01DX009 (ip), vehicle: saline 96 % of control and 108 % of control | [2] 107 % of control | dose: 100.0 mg/kg/injection, schedule: Q04DX002 (ip), vehicle: saline 98 % of control | [3] 101 % of control | [4] 104 % of control | dose: 200.0 mg/kg/injection, schedule: Q01DX009 (ip), vehicle: saline 101 % of control and 91 % of control | [5] 100 % of control | dose: 200.0 mg/kg/injection, schedule: Q04DX002 (ip), vehicle: saline 113 % of control | [6] 99 % of control | [7] 98 % of control | dose: 400.0 mg/kg/injection, schedule: Q01DX009 (ip), vehicle: saline 96 % of control and 103 % of control | [8] 111 % of control | dose: 400.0 mg/kg/injection, schedule: Q04DX002 (ip), vehicle: saline 98 % of control | [9] 99 % of control

CC(C)C(C(=O)O)N1C(=O)C2C3CCC(O3)C2C1=O (stereo not given)
inactive: [3] 98 % of control and 102 % of control | [6] 98 % of control and 89 % of control | [9] 98 % of control and 103 % of control

COC(=O)C1=C2c3ccc(OC)cc3CCC2C(=O)C1 (stereo not given)
inactive: [10] 97 % of control | [11] 105 % of control | [12] 89 % of control

COc1ccc(CCC(=O)O)cc1
inactive: dose: 50.0 mg/kg/injection, schedule: Q04DX003 (ip), vehicle: gum acacia 98 % of control | dose: 100.0 mg/kg/injection, schedule: Q04DX003 (ip), vehicle: gum acacia 98 % of control | dose: 200.0 mg/kg/injection, schedule: Q04DX003 (ip), vehicle: gum acacia 95 % of control

Nc1ccc(-n2cnc3c(=O)[nH]c(N)nc32)cc1
inactive: [13] 98 % of control | [14] 98 % of control | dose: 400.0 mg/kg/injection, schedule: Q04DX003 (ip), vehicle: saline with Tween-80 92 % of control

NNC(=S)Nc1ccccc1
inactive: dose: 5.0 mg/kg/injection, schedule: Q01DX009 (ip), vehicle: saline with Tween-80 98 % of control

O=C(O)C(Nc1ccc(Nc2ccccc2)cc1)c1ccccc1 (stereo not given)
inactive: [2] 100 % of control | [5] 103 % of control | [8] 114 % of control

Cc1cc(NCCN(C(C)C)C(C)C)nc(/N=C(\N)Nc2ccc(Cl)c(C(F)(F)F)c2)n1
inactive: dose: 1.25 mg/kg/injection, schedule: Q01DX009 (ip), vehicle: Klucel (hydroxypropylcellulose) (HPC) 109 % of control | dose: 2.5 mg/kg/injection, schedule: Q01DX009 (ip), vehicle: Klucel (hydroxypropylcellulose) (HPC) 104 % of control | dose: 5.0 mg/kg/injection, schedule: Q01DX009 (ip), vehicle: Klucel (hydroxypropylcellulose) (HPC) 107 % of control | dose: 9.37 mg/kg/injection, schedule: Q01DX009 (ip), vehicle: Klucel (hydroxypropylcellulose) (HPC) 98 % of control | dose: 10.0 mg/kg/injection, schedule: Q01DX009 (ip), vehicle: Klucel (hydroxypropylcellulose) (HPC) 102 % of control | dose: 18.75 mg/kg/injection, schedule: Q01DX009 (ip), vehicle: Klucel (hydroxypropylcellulose) (HPC) 96 % of control | dose: 20.0 mg/kg/injection, schedule: Q01DX009 (ip), vehicle: Klucel (hydroxypropylcellulose) (HPC) 98 % of control | dose: 75.0 mg/kg/injection, schedule: Q01DX001 (ip), vehicle: other 103 % of control | [15] 100 % of control | dose: 150.0 mg/kg/injection, schedule: Q01DX001 (ip), vehicle: other 98 % of control | [16] 100 % of control | dose: 300.0 mg/kg/injection, schedule: Q01DX001 (ip), vehicle: other 110 % of control | [17] 105 % of control

CC/C(=N\N=C(/CC)c1ccccc1)c1ccccc1
inactive: dose: 25.0 mg/kg/injection, schedule: Q01DX009 (ip), vehicle: Klucel (hydroxypropylcellulose) (HPC) 98 % of control | [18] 101 % of control | [19] 98 % of control | [2] 96 % of control | [5] 107 % of control | [20] 86 % of control | [8] 91 % of control

CNC(=O)Oc1cccc(CN(C)C)c1
inactive: dose: 5.0 mg/kg/injection, schedule: Q01DX001 (ip), vehicle: saline 98 % of control | dose: 10.0 mg/kg/injection, schedule: Q01DX001 (ip), vehicle: saline 96 % of control | dose: 20.0 mg/kg/injection, schedule: Q01DX001 (ip), vehicle: saline 96 % of control

Cc1ccc(Cl)cc1NC(=O)C(C)Oc1ccccc1 (stereo not given)
inactive: [2] 89 % of control | [5] 89 % of control | [8] 92 % of control

Nc1ccc(SS(N)(=O)=O)cc1
inactive: [1] 98 % of control | [4] 98 % of control

CCOC(=O)/C=C(/Nc1ccc(C(=O)c2ccccc2)cc1)C(=O)OCC
inactive: dose: 100.0 mg/kg/injection, schedule: Q01DX001 (ip), vehicle: acetone 87 % of control | dose: 100.0 mg/kg/injection, schedule: Q04DX003 (ip), vehicle: acetone 95 % of control | dose: 200.0 mg/kg/injection, schedule: Q01DX001 (ip), vehicle: acetone 92 % of control | dose: 200.0 mg/kg/injection, schedule: Q04DX003 (ip), vehicle: acetone 93 % of control | dose: 400.0 mg/kg/injection, schedule: Q01DX001 (ip), vehicle: acetone 90 % of control | dose: 400.0 mg/kg/injection, schedule: Q04DX003 (ip), vehicle: acetone 98 % of control

CC#CC(O)(C(=O)OC1CCN(C)CC1)C(C)CC (stereo not given)
inactive: [21] 92 % of control | [22] 96 % of control | [13] 120 % of control | [14] 102 % of control

O=S1(=O)CCCC(c2ccccc2)=C1c1ccccc1
inactive: [18] 102 % of control | [19] 105 % of control | [23] 91 % of control

O=C1CSC2=NCCN12
inactive: [1] 99 % of control | [3] 93 % of control | [4] 99 % of control | [6] 98 % of control | [7] 92 % of control

CCOC(=O)c1ccc(O)c(NC(C)=O)c1
inactive: [19] 95 % of control | [10] 95 % of control | [23] 94 % of control | [11] 100 % of control | [20] 94 % of control | [12] 91 % of control

C/C(CC(=O)Nc1ccccn1)=N\c1ccccn1
inactive: [1] 98 % of control | [4] 92 % of control | [7] 88 % of control

CN(CC(=O)c1ccc(-c2ccccc2)cc1)C(=O)c1ccccc1
inactive: [15] 96 % of control | [16] 89 % of control | [17] 89 % of control

CC(=O)NC1CCCC(CC2CCCCC2)C1 (stereo not given)
inactive: [10] 103 % of control | [11] 93 % of control | [12] 98 % of control

CC(C)(C)NC(=O)NC1CCCCC1
inactive: dose: 100.0 mg/kg/injection, schedule: Q01DX001 (ip), vehicle: saline with Tween-80 95 % of control | [22] 94 % of control and 110 % of control | dose: 100.0 mg/kg/injection, schedule: Q04DX002 (ip), vehicle: saline with Tween-80 97 % of control and 100 % of control | [3] 101 % of control | dose: 200.0 mg/kg/injection, schedule: Q01DX001 (ip), vehicle: saline with Tween-80 98 % of control | dose: 200.0 mg/kg/injection, schedule: Q01DX009 (ip), vehicle: saline with Tween-80 100 % of control and 87 % of control | dose: 200.0 mg/kg/injection, schedule: Q04DX002 (ip), vehicle: saline with Tween-80 97 % of control | [6] 111 % of control | dose: 400.0 mg/kg/injection, schedule: Q01DX001 (ip), vehicle: saline with Tween-80 95 % of control | dose: 400.0 mg/kg/injection, schedule: Q01DX009 (ip), vehicle: saline with Tween-80 100 % of control and 115 % of control | dose: 400.0 mg/kg/injection, schedule: Q04DX002 (ip), vehicle: saline with Tween-80 94 % of control and 90 % of control | [9] 101 % of control

N#CC1C=CCC1 (stereo not given)
inactive: [21] 100 % of control | [22] 100 % of control

CCOC(=O)C(NC(=O)c1ccccc1)C(=O)OCC
inactive: dose: 50.0 mg/kg/injection, schedule: Q01DX001 (ip), vehicle: saline 96 % of control | [1] 96 % of control | [4] 96 % of control | [7] 96 % of control
